In US5624906A, “Oral hygiene compositions comprising heteroatom containing alkyl aldonamide compounds” (Lever Brothers Company, Division of Conopco, Inc., priority 1994, dated 1997):

Assays:
Assay type in all cases: physicochemical
Krafft point = settings: 0.1% in water
Method: The temperature at and above which surfactants begin to form micelles instead of precipitates is referred to as the Krafft point (Tk) and at this temperature the solubility of a surfactant becomes equal to its CMC (numerical value at which micelles are formed).
The Krafft point was measured by preparing 650 ml of a 0.1% or 1.0% dispersion of aldonamide in water by weight. If the surfactant was soluble at room temperature, the solution was slowly cooled to 0° C. […] (less than zero). If it precipitated out of solution, the temperature at which precipitation occurs was taken as the Krafft point.
If the surfactant was insoluble at room temperature, the dispersion was slowly heated until the solution became homogeneous. It was then slowly cooled until precipitation occurred. The temperature at which the surfactant precipitates out of solution upon cooling was taken as the Krafft point.

[1] = Critical micelle concentration, Wilhelmy plate method; settings: 60 °C
Method: The critical micelie concentration (CMC) is defined as the concentration at which a surfactant forms micelles in aqueous solution. Micellization is the preferred interfacial phenomena, since certain surfactant benefits such as detergency (the solubilization of soils), foaming, wetting or emulsification depend on the formation of these aggregates in solution.
The CMC value of C8 /C10 oxypropyl D-gluconamide was determined by plotting surface tension as a function of log(concentration) and extrapolating linear points to obtain an intersection point. The concentration at this point was taken as the CMC. The technique used was the Wilhelmy plate method and the instrument used was a Lauda Auto-Tensiometer. While wishing not to be bound to theory, it is believed that surfactants with low CMC values form micelles more readily at lower concentrations than those with high CMC values.

[2] = Water solubility (statements)
[3] = Foam stability and enhancement of sodium/ammonium lauryl sulfate, Ross-Miles (Example 86); settings: 45° C., 4.0% foam stabilizer in sodium/ammonium lauryl sulfate composition
Method: The results were compared to identical compositions comprising petrochemically derived foam stabilizing agents, in particular, alkanolamides and alcohol ethoxylates. The prototype surfactant composition is as follows:
The compositions were prepared by admixing the ingredients in listed order with rapid stirring at 45--50° C. Foam stability and enhancement were measured at 0.1% based on sodium and ammonium lauryl sulfate (0.16% total solids) at 45° C. and 0 or 120 parts per million (ppm) hardness calcium:magnesium ion 2:1.

[4] = Foam stability and enhancement, Ross-Miles method (Example 85); settings: triolein/calcium stearate 1 g/L, 10:90 mole % with C12 LAS, 35° C., read after 30 minutes
Method: The triolein/calcium stearate mixture was dispersed to the above solutions using a high speed shear mixer at 60° C. and then cooled to 35 ° C. The triolein/calcium stearate mixture represents an extreme type of antifoam behavior found in sebum soil.
In the Ross-Miles method, 200 mL of a surfactant solution contained in a pipette of specified dimensions with a 2.9-mm-i.d. orifice is allowed to fall 90 cm onto 50 mL of the same solution contained in a cylindrical vessel maintained at a given temperature by means of a water jacket. The height of the foam produced in the cylindrical vessel is read after 30 minutes has elapsed.
The foam stability and enhancement of the heteroatom containing alkyl aldonamides was further determined using a 10:90 mole percent solution of C8 /C10 oxypropyl D-gluconamide (C8 C10 OPG): sodium dodecyl benzene sulfonate (C12 LAS) and compared to identical solutions of dodecyl D-gluconamide (C12 Gluc): sodium dodecyl benzene sulfonate in the presence and absence of the triolein/calcium stearate antifoam.

CCCCCCCCCCCCNC(=O)[C@H](O)[C@@H](O)[C@H](O)[C@H](O)CO [C12 D-Gluconamide, dodecyl D-gluconamide]
Krafft Point (0.1%) (Krafft point): 91 °C
CMC (in words) [1]: None (Insoluble)
water solubility (in words) [2]: insoluble in water

cocoamide monoethanolamine [Cocoamide MEA]
Final FH after 60 Min. ([3]; 0 ppm hardness): 70 mm
Final FH after 60 Min. ([3]; 120 ppm hardness): 53 mm

sodium dodecyl benzene sulfonate [C12 LAS]
Foam Height, With Antifoam [4]: 61 mm
